From patent US20230355670A1, “Methods of activating cytotoxic leukocytes using PTP1B and PTPN2 inhibitors” (Monash University, priority 2019, published 2023)

How the values were obtained:
[1] = system: HER-2-E0771 mammary tumour cells; test: Tumour growth of HER-2-E0771 mammary tumours in HER-2 TG mice after adoptive transfer of HER-2 CAR T cells, with MSI-1436 treatment; type: in vivo; settings: MSI-1436 5 mg/kg intraperitoneally on days 1, 4, 7, 10, 13, 16 and 19 post adoptive transfer of total 20×10^6 HER-2 CAR T cells; versus saline; no IL-2; female HER-2 TG mice
Experimental: HER-2-E0771 mammary tumour cells (2×10^5) were injected into the fourth inguinal mammary fat pads of female HER-2 TG mice. Seven days after tumour injection HER-2 TG mice received total body irradiation (4 Gy) followed by the adoptive transfer of total 20×10^6 HER-2 CAR T cells (=6×10^6 viable mCherry^+HER2 CAR^+CD8^+CD44^hiCD62L^hi T cells) generated from Ptp1b^fl/fl versus Lck-Cre;Ptp1b^fl/fl splenocytes; mice were not administered IL-2. Mice were treated with PTP1B specific allosteric inhibitor MSI-1436 (5 mg/kg intraperitoneally) or saline on days 1, 4, 7, 10, 13, 16 and 19 post adoptive transfer and tumour growth was monitored. Representative results (means±SEM) from at least two independent experiments are shown. Significance was determined using 2-way ANOVA Test; *p<0.05 ****p<0.0001.
HER-2-E0771 mammary tumour cells (2×10^5) were injected into the fourth inguinal mammary fat pads of female HER-2 TG mice. […] Mice were treated with PTP1B specific allosteric inhibitor MSI-1436 (5 mg/kg intraperitoneally) or saline on days 1, 4, 7, 10, 13, 16 and 19 post adoptive transfer and tumour growth was monitored. […] Significance was determined using 2-way ANOVA Test; *p<0.05, ****p<0.0001.

[2] = system: HER-2-E0771 mammary tumour cells; test: Tumour growth of HER-2-E0771 mammary tumours in HER-2 TG mice after adoptive transfer of control or Ptpn2-/- HER-2 CAR T cells, with MSI-1436 treatment; type: in vivo; settings: MSI-1436 5 mg/kg intraperitoneally on days 1, 4 and 7 post adoptive transfer of total 5×10^6 control or Ptpn2-/- HER-2 CAR T cells; versus saline; female HER-2 TG mice
Experimental: HER-2-E0771 mammary tumour cells (2×10^5) were injected into the fourth inguinal mammary fat pads of female HER-2 TG mice. Seven days after tumour injection HER-2 TG mice received total body irradiation (4 Gy) followed by the adoptive transfer of total 5×10^6 HER-2 CAR T cells (=0.8×10^6 viable mCherry^+HER-2 CAR^+CD8^+CD44^hiCD62L^hi T cells) control (ctrl) or Ptpn2^−/− HER-2 CAR CD8 T cells (PTPN2 had been deleted by CRISPR-RNP). HER-2 mice were treated with MSI-1436 (5 mg/kg intraperitoneally) or saline on days 1, 4, and 7 post adoptive transfer and tumour growth was monitored. Significance in was determined using 2-way ANOVA Test; ****p<0.0001.

CC(C)[C@@H](CC[C@@H](C)[C@H]1CC[C@H]2[C@@H]3[C@H](O)C[C@H]4C[C@@H](NCCCNCCCCNCCCN)CC[C@]4(C)[C@H]3CC[C@]12C)OS(=O)(=O)O [MSI-1436, Trodusquemine]
tumour growth (tumour-specific activity of HER2 CAR T cells in vivo) [1]: Enhances the Tumour-Specific Activity of HER2 CAR T Cells In Vivo
tumour growth (activity of CAR T cells in vivo) [2]: ‘supercharges’ CAR T cells in vivo
